Among the data in ChEMBL document CHEMBL4725219, “Identification and in silico prediction of metabolites of tebufenozide derivatives by major human cytochrome P450 isoforms” (Bioorg Med Chem, 2020) are Retention_time and Drug metabolism values, retold here.

In data set [1] the target is T1, Cytochrome P450 3A4 (Homo sapiens, UniProt P08684). The data set can be described thus: Drug metabolism in recombinant Saccharomyces cerevisiae AH22 cells expressing human CYP3A4 assessed as CYP3A4-mediated hydroxylation at methyl group of B-ring by measuring retention time of the metabolite at 39 uM incubated for 24 hrs by HPLC analysis. The class given is ADME. The note with it: recombinant enzyme.
T1 sequence (P08684 whole entry): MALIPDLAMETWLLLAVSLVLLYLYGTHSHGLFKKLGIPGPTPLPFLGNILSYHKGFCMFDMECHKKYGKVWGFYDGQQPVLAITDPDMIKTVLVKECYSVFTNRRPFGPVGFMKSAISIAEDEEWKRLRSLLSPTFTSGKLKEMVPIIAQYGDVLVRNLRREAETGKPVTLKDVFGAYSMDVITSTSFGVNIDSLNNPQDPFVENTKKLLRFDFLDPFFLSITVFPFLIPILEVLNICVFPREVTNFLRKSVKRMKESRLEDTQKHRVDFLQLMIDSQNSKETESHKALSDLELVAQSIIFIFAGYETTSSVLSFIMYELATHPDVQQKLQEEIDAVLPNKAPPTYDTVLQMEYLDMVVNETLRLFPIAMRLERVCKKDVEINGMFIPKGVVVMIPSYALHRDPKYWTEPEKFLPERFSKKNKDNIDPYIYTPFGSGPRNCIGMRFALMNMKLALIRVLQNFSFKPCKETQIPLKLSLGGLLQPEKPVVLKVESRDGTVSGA

The target in data set [2] is Cytochrome P450 2D6 (Homo sapiens, UniProt P10635). The experiment in a line: Drug metabolism in microsomes containing baculovirus expressing human CYP2D6 assessed as CYP2D6-mediated hydroxylation at methyl group of A-ring by LC/MS/MS analysis relative to control. Type of data set: ADME, Microsome.
Cytochrome P450 2D6, sequence (P10635 whole entry): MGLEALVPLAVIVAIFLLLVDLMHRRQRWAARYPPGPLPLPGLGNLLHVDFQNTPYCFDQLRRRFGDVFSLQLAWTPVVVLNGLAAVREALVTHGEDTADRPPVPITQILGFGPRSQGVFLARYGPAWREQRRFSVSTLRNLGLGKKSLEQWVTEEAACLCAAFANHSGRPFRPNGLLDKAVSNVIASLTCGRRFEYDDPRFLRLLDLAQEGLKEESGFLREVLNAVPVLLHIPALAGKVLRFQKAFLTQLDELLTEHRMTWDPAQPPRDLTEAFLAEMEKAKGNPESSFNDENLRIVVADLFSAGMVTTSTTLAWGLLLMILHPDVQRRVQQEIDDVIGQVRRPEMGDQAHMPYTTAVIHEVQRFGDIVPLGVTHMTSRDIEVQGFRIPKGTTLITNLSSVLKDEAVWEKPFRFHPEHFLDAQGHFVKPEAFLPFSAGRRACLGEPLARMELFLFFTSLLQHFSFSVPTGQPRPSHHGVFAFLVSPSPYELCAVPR
Data set [3] deals with T1, Cytochrome P450 3A4. The experiment in a line: Drug metabolism in recombinant Saccharomyces cerevisiae AH22 cells expressing human CYP3A4 assessed as CYP3A4-mediated hydroxylation at t-butyl group by measuring retention time of the metabolite at 39 uM incubated for 24 hrs by HPLC analysis. Type of data set: ADME. The note with it: recombinant enzyme.
Data set [4] deals with Cytochrome P450 2C9 (Homo sapiens, UniProt P11712). The experiment in a line: Drug metabolism in microsomes containing baculovirus expressing human CYP2C9 assessed as CYP2C9-mediated hydroxylation at methyl group of A-ring by LC/MS/MS analysis relative to control. Type of data set: ADME, Microsome.
Cytochrome P450 2C9, sequence (P11712 whole entry): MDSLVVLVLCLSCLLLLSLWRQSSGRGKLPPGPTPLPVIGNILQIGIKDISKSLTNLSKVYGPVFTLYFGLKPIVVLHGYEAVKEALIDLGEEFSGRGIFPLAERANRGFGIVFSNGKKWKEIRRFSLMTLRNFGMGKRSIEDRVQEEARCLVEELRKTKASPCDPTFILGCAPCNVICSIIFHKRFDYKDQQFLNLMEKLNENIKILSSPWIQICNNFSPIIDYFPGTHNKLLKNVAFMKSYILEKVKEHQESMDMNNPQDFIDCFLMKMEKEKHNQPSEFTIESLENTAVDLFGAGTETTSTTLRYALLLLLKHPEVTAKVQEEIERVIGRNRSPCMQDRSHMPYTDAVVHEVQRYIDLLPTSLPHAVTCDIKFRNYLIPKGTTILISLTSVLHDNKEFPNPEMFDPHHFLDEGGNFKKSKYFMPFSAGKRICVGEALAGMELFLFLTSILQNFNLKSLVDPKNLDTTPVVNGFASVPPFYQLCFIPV
The target in data set [5] is T2, Cytochrome P450 1A2 (Homo sapiens, UniProt P05177).
T2 sequence (P05177 whole entry): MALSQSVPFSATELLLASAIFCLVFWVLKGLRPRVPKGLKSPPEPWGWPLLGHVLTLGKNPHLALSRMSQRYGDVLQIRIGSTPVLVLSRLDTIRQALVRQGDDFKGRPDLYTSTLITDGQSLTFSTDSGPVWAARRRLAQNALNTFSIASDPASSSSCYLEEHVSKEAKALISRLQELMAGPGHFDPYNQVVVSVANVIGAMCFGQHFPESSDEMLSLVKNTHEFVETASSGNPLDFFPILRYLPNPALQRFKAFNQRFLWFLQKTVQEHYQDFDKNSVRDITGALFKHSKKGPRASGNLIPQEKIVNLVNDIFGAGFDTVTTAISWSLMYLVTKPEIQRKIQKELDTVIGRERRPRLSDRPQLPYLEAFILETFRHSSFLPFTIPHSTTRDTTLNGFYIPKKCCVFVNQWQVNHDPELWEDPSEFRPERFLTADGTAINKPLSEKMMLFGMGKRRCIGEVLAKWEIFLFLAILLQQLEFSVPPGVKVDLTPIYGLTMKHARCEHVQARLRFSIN
The data set can be described thus: Drug metabolism in microsomes containing baculovirus expressing human CYP1A2 assessed as CYP1A2-mediated hydroxylation by LC/MS/MS analysis. The class given is ADME, Microsome.

Data set [6] addresses T1, Cytochrome P450 3A4. The experiment in a line: Drug metabolism in recombinant Saccharomyces cerevisiae AH22 cells expressing human CYP3A4 assessed as CYP3A4-mediated hydroxylation at methyl group of A-ring by measuring retention time of the metabolite at 39 uM incubated for 24 hrs by HPLC analysis. Type of data set: ADME. The note with it: recombinant enzyme.
Data set [7] in a line: Drug metabolism in recombinant Saccharomyces cerevisiae AH22 cells expressing human CYP3A4/CYP2C9 assessed as CYP-mediated hydroxylation at CH3-isopropyl group of B ring by measuring retention time of the metabolite at 100 uM incubated for 24 hrs by HPLC analysis. The class given is ADME.
Data set [8] can be described thus: Drug metabolism in recombinant Saccharomyces cerevisiae AH22 cells expressing human CYP3A4/CYP2C9 assessed as CYP-mediated hydroxylation at methyl group of A-ring by measuring retention time of the metabolite at 100 uM incubated for 24 hrs by HPLC analysis. The class given is ADME.
Data set [9] can be described thus: Drug metabolism in recombinant Saccharomyces cerevisiae AH22 cells expressing human CYP3A4/CYP2C9 assessed as CYP-mediated hydroxylation at CH-isopropyl group of B-ring by measuring retention time of the metabolite at 100 uM incubated for 24 hrs by HPLC analysis. Type of data set: ADME.

On to `Cc1cccc(C(=O)NN(C(=O)c2cc(C)cc(C)c2)C(C)(C)C)c1`, for which the values for the Retention_time in [1], in data set [3] and in [6] were 16.1 min, 16.1 min and 17.4 min, respectively. Moreover, the Drug metabolism result in data set [2] is given as “Metabolite_Detected”; in [4], “Metabolite_Detected”; in data set [5] it was “Metabolite_Notdetected”.
Turning to `Cc1cc(C)cc(C(=O)N(NC(=O)c2ccccc2C)C(C)(C)C)c1`, the Drug metabolism entry in data set [5] is listed as “Metabolite_Notdetected”.
In the case of `Cc1cc(C)cc(C(=O)N(NC(=O)c2ccc(C(C)C)cc2)C(C)(C)C)c1`, the Retention_time in data set [7] is listed as 12 min; in data set [8], 17.7 min; in data set [9], 13.9 min. In addition, the Drug metabolism result in data set [5] is recorded as “Metabolite_Notdetected”.
